Results reported in article PMC10041525, “New Dual Inhibitors of Bacterial Topoisomerases with Broad-Spectrum Antibacterial Activity and In Vivo Efficacy against Vancomycin-Intermediate Staphylococcus aureus” (Journal of Medicinal Chemistry, 2023).
Converted amounts (≈) assume the structure as drawn. Where two headings read alike, the source gives them in different places.

Tests used:
[1] = tested on: Enterobacter cloacae spp. cloacae ATCC 13047; assay: MIC broth microdilution (CLSI); type: cell-based; conditions: Enterobacter cloacae, ATCC13047; read-out: MIC
Experimental: (§1) MICs (Tables 1 and S1–S3) were determined with a standard serial broth microdilution technique according to Clinical and Laboratory Standards Institute (CLSI) guidelines.[45] Cation-adjusted Mueller Hinton broth 2 (MHBII) was used for bacterial growth under standard laboratory conditions and for antimicrobial susceptibility tests. MHBII broth was prepared by dissolving 22 g of MHBII powder [containing beef extract (3 g), acid hydrolysate of casein (17.5 g), and starch (1.5 g); Becton Dickinson and Co.] in 1 L of water. To prepare MHBII agar, 14 g of agar (Bacto; Molar Chemicals) was added to 1 L of broth.
(§2) Bacterial strains were inoculated onto MHBII agar plates and grown overnight at 37 °C. Next, three individual colonies from each strain were inoculated into 1 mL of MHBII medium and propagated at 37 °C overnight, with agitation at 250 rpm. For Enterococcus sp., the cells were plated in brain–heart infusion [(BHI) medium] agar plates, and BHI broth was used to determine the MICs. […] The highest final DMSO concentration in the experiments was 0.64% (in the case of the 64 μg/mL concentration of the inhibitor). Following the dilutions, each well was seeded with 5 × 10^4 bacterial cells (in 100 μL final volume). Each measurement was performed in three parallel replicates, and to avoid possible edge effects in the microwell plates, the outside rows (A, H) were filled with sterile medium. Following the inoculations, the plates were covered with the lids and wrapped in polyethylene plastic bags, to minimize evaporation but to allow O2 transfer. The plates were incubated at 37 °C under continuous shaking at 150 rpm for 18 h. After incubation, the OD600 of each well was measured using a microplate reader (Synergy 2; Biotek). The MICs were defined as the antibiotic concentrations which inhibited the growth of the bacterial cultures; that is, the drug concentration where the average OD600 increment of the three technical replicates was below 1.5-fold the background OD increment.

E. faecium ATCC 700221 = assay: MIC broth microdilution (CLSI); type: cell-based
Experimental: as §1, §2

[2] = tested on: S. aureus (MRSA) ATCC 43300; assay: MIC broth microdilution (CLSI); type: cell-based; conditions: Staphylococcus aureus
Experimental: as §1, §2

[3] = tested on: S. aureus (VISA) ATCC 700699; assay: MIC broth microdilution (CLSI); type: cell-based; conditions: Staphylococcus aureus; read-out: MIC
Experimental: as §1, §2

K. pneumoniae ATCC 10031 = assay: MIC broth microdilution (CLSI); type: cell-based
Experimental: as §1, §2

E. coli ATCC 25922 = assay: MIC broth microdilution (CLSI); type: cell-based; conditions: Escherichia coli, ATCC25922; read-out: MIC
Experimental: as §1, §2

P. aeruginosa ATCC 27853 = assay: MIC broth microdilution (CLSI); type: cell-based; conditions: Pseudomonas aeruginosa, ATCC27853; read-out: MIC
Experimental: as §1, §2

topo IV from E. coli = molecular target: T1, topo IV from E. coli (Escherichia coli, UniProt P20083); assay: relaxation HTS plate assay; type: biochemical
T1 construct: purchased Inspiralis
T1 sequence (P0AFI2 whole entry): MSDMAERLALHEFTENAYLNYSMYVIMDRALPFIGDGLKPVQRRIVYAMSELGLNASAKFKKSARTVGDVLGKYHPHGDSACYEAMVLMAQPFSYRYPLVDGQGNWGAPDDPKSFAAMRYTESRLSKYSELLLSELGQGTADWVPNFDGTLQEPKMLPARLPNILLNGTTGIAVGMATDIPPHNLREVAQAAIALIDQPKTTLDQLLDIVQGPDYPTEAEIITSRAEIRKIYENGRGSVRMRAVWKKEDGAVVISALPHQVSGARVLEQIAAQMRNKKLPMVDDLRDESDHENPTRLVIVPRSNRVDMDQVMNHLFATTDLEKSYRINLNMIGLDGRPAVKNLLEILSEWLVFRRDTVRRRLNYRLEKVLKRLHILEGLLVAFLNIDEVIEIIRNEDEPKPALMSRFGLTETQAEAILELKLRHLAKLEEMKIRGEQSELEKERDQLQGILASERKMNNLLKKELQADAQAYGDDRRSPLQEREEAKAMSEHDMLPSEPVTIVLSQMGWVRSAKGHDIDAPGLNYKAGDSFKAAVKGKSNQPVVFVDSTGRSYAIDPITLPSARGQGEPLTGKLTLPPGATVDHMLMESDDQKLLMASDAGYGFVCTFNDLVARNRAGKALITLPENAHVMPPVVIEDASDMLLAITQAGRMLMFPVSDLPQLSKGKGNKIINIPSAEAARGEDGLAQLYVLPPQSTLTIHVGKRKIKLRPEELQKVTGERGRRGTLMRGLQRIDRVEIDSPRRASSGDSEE
T1 sequence (P20083 whole entry): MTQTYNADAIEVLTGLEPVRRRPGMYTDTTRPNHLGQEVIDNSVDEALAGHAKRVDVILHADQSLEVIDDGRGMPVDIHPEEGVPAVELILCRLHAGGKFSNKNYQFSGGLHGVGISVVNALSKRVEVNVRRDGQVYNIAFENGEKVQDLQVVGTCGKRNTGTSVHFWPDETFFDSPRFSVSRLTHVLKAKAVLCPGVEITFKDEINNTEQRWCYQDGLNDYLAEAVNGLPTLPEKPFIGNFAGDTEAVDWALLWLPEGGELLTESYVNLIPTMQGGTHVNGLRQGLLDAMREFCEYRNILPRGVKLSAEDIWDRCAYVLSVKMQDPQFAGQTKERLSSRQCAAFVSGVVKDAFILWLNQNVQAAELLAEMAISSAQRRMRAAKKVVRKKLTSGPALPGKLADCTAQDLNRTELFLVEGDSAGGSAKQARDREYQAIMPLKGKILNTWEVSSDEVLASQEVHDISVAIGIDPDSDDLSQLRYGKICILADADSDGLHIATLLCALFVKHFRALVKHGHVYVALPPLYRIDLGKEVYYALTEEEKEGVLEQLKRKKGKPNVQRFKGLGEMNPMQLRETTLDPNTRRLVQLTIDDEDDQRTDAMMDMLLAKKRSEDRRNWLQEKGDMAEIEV
Experimental: (§3) All compounds were tested for their inhibitory activities against DNA gyrase and topo IV from E. coli in supercoiling and relaxation high-throughput plate assays, respectively. Our new series of inhibitors were then tested against a panel of Gram-positive and Gram-negative bacteria.
(§4) Seven concentrations of the inhibitors were used to determine IC50 values which were then calculated with GraphPad Prism 6.0 software. Three independent measurements were performed to determine IC50 values, and mean values are reported as the final result.

DNA gyrase from E. coli = molecular target: T2, DNA gyrase from E. coli (Escherichia coli, UniProt P0AES6); assay: supercoiling HTS plate assay; type: biochemical; conditions: IC50 [nM] E. coli DNA gyrase
T2 construct: purchased Inspiralis
Experimental: as §3, §4

A. baumannii ATCC 17978 = assay: MIC broth microdilution (CLSI); type: cell-based; conditions: Acinetobacter baumannii, ATCC17978
Experimental: (§5) Cation-adjusted Mueller Hinton broth 2 (MHBII) was used for bacterial growth under standard laboratory conditions and for antimicrobial susceptibility tests. MHBII broth was prepared by dissolving 22 g of MHBII powder [containing beef extract (3 g), acid hydrolysate of casein (17.5 g), and starch (1.5 g); Becton Dickinson and Co.] in 1 L of water. To prepare MHBII agar, 14 g of agar (Bacto; Molar Chemicals) was added to 1 L of broth.
(§6) Bacterial strains were inoculated onto MHBII agar plates and grown overnight at 37 °C. Next, three individual colonies from each strain were inoculated into 1 mL of MHBII medium and propagated at 37 °C overnight, with agitation at 250 rpm. For Enterococcus sp., the cells were plated in brain–heart infusion [(BHI) medium] agar plates, and BHI broth was used to determine the MICs. […] Following the dilutions, each well was seeded with 5 × 10^4 bacterial cells (in 100 μL final volume). Each measurement was performed in three parallel replicates, and to avoid possible edge effects in the microwell plates, the outside rows (A, H) were filled with sterile medium. Following the inoculations, the plates were covered with the lids and wrapped in polyethylene plastic bags, to minimize evaporation but to allow O2 transfer. […] After incubation, the OD600 of each well was measured using a microplate reader (Synergy 2; Biotek).

S. aureus ATCC 29213 = assay: MIC broth microdilution (CLSI); type: cell-based; conditions: Staphylococcus aureus, ATCC29213
Experimental: as §5, §6

[4] = tested on: Enterococcus faecalis ATCC 29212; assay: MIC broth microdilution (CLSI); type: cell-based, E. faecalis; conditions: Enterococcus faecalis, ATCC29212; read-out: MIC
Experimental: as §1, §2

physchem = type: physicochemical; conditions: phosphate-buffered saline (PBS)
Experimental: For the PBS, 2.38 g of disodium hydrogen phosphate dodecahydrate, 0.19 g of potassium dihydrogen phosphate, and 8.0 g of sodium chloride were added to distilled water (900 mL), and the solution was mixed overnight. […] Samples were prepared by weighing the exact mass of solid compounds (about 1 mg), and then, the appropriate volume of PBS was added to reach the final concentration of ∼1 mg/mL. […] The supernatant was diluted 3× with a 1:1 mixture of 0.1% TFA in water and acetonitrile and analyzed by HPLC. For the 7-point calibration curves, concentrated stock solutions of the compounds were prepared at concentrations of 10 and 0.5 mM in DMSO, which were diluted with a 1:1 mixture of 0.1% TFA in water and acetonitrile to the desired final concentrations and analyzed by HPLC. Results are given in μM as an average value of two independent experiments. For details on calibration curves, concentrations, analytical method, and HPLC method, see the Supporting Information.
Thermodynamic solubility assay
To determine thermodynamic solubility of compounds in PBS, calibration curves for the assayed compounds were prepared using seven concentrations. First, DMSO stock solutions of compounds at 10 mM and 0.5 mM concentration were prepared and then diluted (0.1% TFA in […]
Quality control (QC) samples were diluted from stock solutions with a 1:1 mixture of 0.1% TFA in water and acetonitrile to final concentrations of 60 µM, 20 µM, and 2 µM (6 µM, 2 µM, and 0.2 µM for 7f or 0.6 µM, 0.2 µM, and 0.02 µM for 7g).
Analytical reversed-phase UHPLC analyses were performed on Thermo Scientific Dionex UltiMate 3000 modular system (Thermo Fisher Scientific Inc., MA, USA). Waters Acquity UPLC® HSS C18 SB column (2.1 × 50 mm, 1.8 μm; Waters, Milford, MA, USA) was used at T […]
Mobile phase consisted of 0.1% trifluoroacetic acid in ultrapure water (solvent A) and acetonitrile […]
The obtained data was processed in Chromeleon CDS software (Thermo Fisher Scientific Inc., […]
Analytical method was tested for accuracy, precision and linear rang. Accuracy was […]
(or 2 or 0.2) µM and 60 (or 6 or 0.6) µM) to their true values and expressed in (%). Values were […]
Method repeatability was determined by calculating the RSD from the separately prepared and analysed quality control samples (n = 3). […] Linearity of the […]
method (1 (or 0.1 or 0.01) µM to 100 (or 10 or 1) µM) was evaluated from the 7-point calibration […]
Solubility was determined in two independent experiments and results were calculated in […]

[5] = Enterococcus faecium, ATCC700221, read-out: MIC
[6] = read-out: MIC [µg/mL](S. aureus MRSA ATCC4330)
[7] = Klebsiella pneumoniae, ATCC10031, read-out: MIC
[8] = read-out: MIC [µg/mL] (A. baumannii ATCC 17978)
[9] = read-out: MIC [µg/mL](S. aureus ATCC 29213)

Structure (SMILES)	MIC [1]	MIC (E. faecium ATCC 700221; [5])	MIC ([2]; read-out: MIC)	MIC [2, 6]	MIC [3]	MIC (K. pneumoniae ATCC 10031; [7])	MIC (E. coli ATCC 25922)	MIC (P. aeruginosa ATCC 27853)	IC50 (topo IV from E. coli; IC50)	IC50 (topo IV from E. coli; IC50 [nM] E. coli TopoIV)	IC50 (DNA gyrase from E. coli)	MIC (A. baumannii ATCC 17978; read-out: MIC)	MIC (A. baumannii ATCC 17978; [8])	MIC (S. aureus ATCC 29213; read-out: MIC)	MIC (S. aureus ATCC 29213; [9])	MIC [4]	also measured
Cc1[nH]c(C(=O)Nc2nc3c(N4CC[C@H](N)C4)cc(C(=O)O)cc3s2)c(Cl)c1Cl.Cl [8a, (S)-1-(6-Carboxy-2-(3,4-dichloro-5-methyl-1H-pyrrole-2-carboxamido)benzo[d]thiazol-4-yl)pyrrolidin-3-aminium Chloride]	> 32 µg/mL	32 µg/mL	16 µg/mL	16 µg/mL	8 µg/mL	4 µg/mL	> 32 µg/mL	> 32 µg/mL	< 100 nM	38 ± 10 nM	< 10 nM	> 32 µg/mL	> 32 µg/mL	32 µg/mL	32 µg/mL	32 µg/mL	MIC (K. pneumoniae ATCC 10031): 4 µg/mL
Cc1[nH]c(C(=O)Nc2nc3c(N4CCC5(CC4)OCCO5)cc(C(=O)O)cc3s2)c(Cl)c1Cl [7r, 2-(3,4-Dichloro-5-methyl-1H-pyrrole-2-carboxamido)-4-(1,4-dioxa-8-azaspiro[4.5]decan-8-yl)benzo[d]thiazole-6-carboxylic Acid]	32 µg/mL	< 0.0312 µg/mL	< 0.0312 µg/mL	< 0.0312 µg/mL	< 0.0312 µg/mL	2 µg/mL	4 µg/mL	8 µg/mL	–	–	17 ± 11 nM	8 µg/mL	8 µg/mL	< 0.0312 µg/mL	< 0.0312 µg/mL	< 0.0312 µg/mL	solubility thermodynamic at 24 h (physchem; pH 7.4, PBS pH 7.4, read-out: thermodynamic solubility, Experiment 1): 26.7 µM (≈ 13.7 µg/mL); solubility thermodynamic at 24 h (physchem; pH 7.4, PBS pH 7.4, read-out: thermodynamic solubility, Experiment 2): 27.3 µM (≈ 13.9 µg/mL); solubility thermodynamic at 24 h (physchem; pH 7.4, thermodynamic solubility (pH = 7.4), PBS, 37 °C, 24 h, mean of two): 27 µM (≈ 13.8 µg/mL)
Cc1[nH]c(C(=O)Nc2nc3c(N4CC[S+]([O-])CC4)cc(C(=O)O)cc3s2)c(Cl)c1Cl [7s, 2-(3,4-Dichloro-5-methyl-1H-pyrrole-2-carboxamido)-4-(1-oxidothiomorpholino)benzo[d]thiazole-6-carboxylic Acid]	> 64 µg/mL	16 µg/mL	64 µg/mL	64 µg/mL	> 64 µg/mL	32 µg/mL	> 64 µg/mL	> 64 µg/mL	< 100 nM	72 ± 3 nM	< 10 nM	> 64 µg/mL	> 64 µg/mL	> 64 µg/mL	> 64 µg/mL	16 µg/mL	–
Cc1[nH]c(C(=O)Nc2nc3c(N4CCOC4=O)cc(C(=O)O)cc3s2)c(Cl)c1Cl [7m, 2-(3,4-Dichloro-5-methyl-1H-pyrrole-2-carboxamido)-4-(2-oxooxazolidin-3-yl)benzo[d]thiazole-6-carboxylic Acid]	> 64 µg/mL	4 µg/mL	64 µg/mL	64 µg/mL	8 µg/mL	32 µg/mL	> 64 µg/mL	> 64 µg/mL	–	–	< 10 nM	> 64 µg/mL	> 64 µg/mL	64 µg/mL	64 µg/mL	4 µg/mL	MIC (E. faecium ATCC 700221): 4 µg/mL; IC50 (topo IV from E. coli; read-out: IC50 [nM] E. coli TopoIV): 180 ± 16 nM
